The experiment has as its target T1, human NPY2R (Homo sapiens, UniProt P49146).
T1 construct: expressed in transfected cells; host or cells: CHO-K1 Cre-luc reporter cells (pAKKO1114/hNPY2R#481 No. 88 cells)
T1 sequence (P49146 1-381): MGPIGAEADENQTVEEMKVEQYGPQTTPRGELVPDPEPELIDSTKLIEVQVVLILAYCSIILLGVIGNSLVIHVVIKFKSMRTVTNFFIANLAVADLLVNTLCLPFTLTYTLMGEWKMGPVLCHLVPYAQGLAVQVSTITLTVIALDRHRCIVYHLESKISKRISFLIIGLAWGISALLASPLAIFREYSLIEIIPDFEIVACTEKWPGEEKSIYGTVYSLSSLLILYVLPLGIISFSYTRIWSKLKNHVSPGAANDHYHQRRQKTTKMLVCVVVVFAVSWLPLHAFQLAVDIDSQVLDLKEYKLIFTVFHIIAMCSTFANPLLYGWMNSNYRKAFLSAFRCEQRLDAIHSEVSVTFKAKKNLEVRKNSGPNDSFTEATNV
The experiment is described as follows: Reporter assay of human NPY2R gene (agonist activity, decrease in intracellular cAMP as index). The format is cell-based. Particulars: Cre-luc reporter, hNPY2R CHO-K1 cells, forskolin 1.2 μM, 4 hours; read-out: Agonist activity (EC50) hY2R. An excerpt:
Evaluation of Agonist Activity Against Human NPY2R, Human GIPR, and Human GLP-1R Using Change in Intracellular cAMP Concentration as Index
The human NPY2R gene having a sequence identical to the sequence of GenBank Accession No. AC104407 was cloned into pAKKO1114 vector to prepare hNPY2R/pAKKO1114. Next, pGL4.29 (Promega) was introduced to CHO-K1 cells, which were then screened with hygromycin to construct Cre-luc reporter cells. These cells were cotransfected with hNPY2R/pAKKO1114 and pcDNA3.1 (Life Technologies Corp.), and the cells were screened with geneticin. Next, a cell line induced to express luciferase, i.e., pAKKO1114/hNPY2R#481 No. 88 cells, were selected from the obtained transformants by the addition of human PYY (3-36).
The pAKKO1114/hNPY2R#481 No. 88 cells were inoculated at a cell density of 25 μL/well (5,000 cells/well) to a 384-well white plate (Corning, 3570), and cultured overnight in Ham F12 medium containing 10% fetal bovine serum, 100 U/mL penicillin and 100 μg/mL streptomycin in a CO2 incubator of 37° C. On the next day, the medium was removed, and an assay medium (Ham F12 medium containing 0.1% BSA, 100 U/mL penicillin and 100 μg/mL streptomycin) containing forskolin (final concentration: 1.2 μM) was added at a concentration of 25 μL/well to the cells. Next, an assay medium containing a test compound was added at a concentration of 5 μL/well to the cells, and the resultant cells were incubated for 4 hours in a CO2 incubator of 37° C. to give the final concentration of 1 μM. SteadyGlo (Promega) was added thereto at a concentration of 30 μL/well, and the mixture was left standing for 20 minutes with light shielded. The luciferase activity was measured using a plate reader Envision (PerkinElmer). The luciferase activity from the addition of DMSO was defined as 100%, and the luciferase activity from the addition of 1 μM human PYY(3-36) instead of the test compound was defined as 0%. The NPY2R agonist activity was calculated with a decrease in intracellular cAMP concentration as an index.

Square brackets hold non-standard residues; d marks the D form. Side chains are listed from the residue outwards. Peptide text beside a SMILES is read from it. * marks the point of attachment. C18 diacid = O=C(O)CCCCCCCCCCCCCCCCC(=O)*; αMeF = C[C@](N)(Cc1ccccc1)C(=O)O; Iva = CC[C@](C)(N)C(=O)O; Aib = CC(C)(N)C(=O)O

The values that follow come from patent US10501516B2, “Peptide compound” (TAKEDA PHARMACEUTICAL COMPANY LIMITED, priority 2016, dated 2019).

With `CC[C@H](C)[C@H](NC(=O)[C@H](CO)NC(=O)[C@H](CCCCNC(=O)CNC(=O)CNC(=O)CNC(=O)CNC(=O)CCCCCCCCCCCCCCCCC(=O)O)NC(=O)[C@H](CC(=O)O)NC(=O)[C@H](CO)NC(=O)[C@@H](NC(=O)[C@](C)(Cc1ccccc1)NC(=O)[C@@H](NC(=O)CNC(=O)[C@H](CCC(=O)O)NC(=O)C(C)(C)NC(=O)[C@@H](N)Cc1ccc(O)cc1)[C@@H](C)O)[C@@H](C)O)C(=O)NC(C)(C)C(=O)N[C@@H](CC(C)C)C(=O)N[C@@H](CC(=O)O)C(=O)N[C@@H](CCCCN)C(=O)N[C@@H](CCC(N)=O)C(=O)N[C@@H](CCCNC(=N)N)C(=O)N[C@@H](CCC(N)=O)C(=O)N[C@@](C)(CC)C(=O)N[C@@H](CCC(=O)O)C(=O)N[C@@H](Cc1ccccc1)C(=O)N[C@H](C(=O)N[C@@H](CCCNC(=N)N)C(=O)N[C@@H](Cc1c[nH]cn1)C(=O)N[C@@H](CC(C)C)C(=O)N[C@@H](CC(C)C)C(=O)N[C@@H](CC(N)=O)C(=O)N[C@@H](CCCCN)C(=O)NC(C)(C)C(=O)N[C@H](C(=O)N[C@@H](CCCNC(=N)N)C(=O)N[C@@H](CCC(N)=O)C(=O)N[C@@H](CCCNC(=N)N)C(=O)N[C@@H](Cc1ccc(O)cc1)C(N)=O)[C@@H](C)O)C(C)C` [Example 16] (H-Y[Aib]EGT[αMeF]TSDK([Gly-Gly-Gly-Gly-C18 diacid])SI[Aib]LDKQRQ[Iva]EFVRHLLNK[Aib]TRQRY-NH2), the EC50 was 2.6 nM.

Turning to `CC[C@H](C)[C@H](NC(=O)C(C)(C)NC(=O)[C@H](CCCCNC(=O)CNC(=O)CNC(=O)CNC(=O)CNC(=O)CCCCCCCCCCCCCCCCC(=O)O)NC(=O)[C@H](CC(=O)O)NC(=O)[C@H](CO)NC(=O)[C@@H](NC(=O)[C@](C)(Cc1ccccc1)NC(=O)[C@@H](NC(=O)CNC(=O)[C@H](CCC(=O)O)NC(=O)C(C)(C)NC(=O)[C@@H](N)Cc1ccc(O)cc1)[C@@H](C)O)[C@@H](C)O)C(=O)NC(C)(C)C(=O)N[C@@H](CC(C)C)C(=O)N[C@@H](CC(=O)O)C(=O)N[C@@H](CCCCN)C(=O)N[C@@H](CCC(N)=O)C(=O)N[C@@H](CCCNC(=N)N)C(=O)N[C@@H](CCC(N)=O)C(=O)N[C@@](C)(CC)C(=O)N[C@@H](CCC(=O)O)C(=O)N[C@@H](Cc1ccccc1)C(=O)N[C@H](C(=O)N[C@@H](CCCNC(=N)N)C(=O)N[C@@H](Cc1c[nH]cn1)C(=O)N[C@@H](CC(C)C)C(=O)N[C@@H](CC(C)C)C(=O)N[C@@H](CC(N)=O)C(=O)N[C@@H](CCCCN)C(=O)NC(C)(C)C(=O)N[C@H](C(=O)N[C@@H](CCCNC(=N)N)C(=O)N[C@@H](CCC(N)=O)C(=O)N[C@@H](CCCNC(=N)N)C(=O)N[C@@H](Cc1ccc(O)cc1)C(N)=O)[C@@H](C)O)C(C)C` [Example 8] (H-Y[Aib]EGT[αMeF]TSDK([Gly-Gly-Gly-Gly-C18 diacid])[Aib]I[Aib]LDKQRQ[Iva]EFVRHLLNK[Aib]TRQRY-NH2), the EC50 was 2.1 nM.

In general, EC50 refers to the midpoint of the concentration-response curve.
